Entries after “also recorded” stand apart in the source; their conditions may differ.
What was measured:
IFNγ‐secreting T‐cells = assay: In vivo immunisation, IFNγ ELISpot on splenocytes, HHDII/DR1 mice; parameters: species or system HHDII/DR1 (HLA‐A2 transgenic) mice
Description: (§1) Animal experiments were carried out with ethical approval from University of Nottingham ethical review board and under a Home Office approved project license (PP2706800). Mice were dosed with 10 nmol of material in 50 μL at Days 1, 8 and 15 (n = 3). IFNϒ ELISpot assays on splenocytes were conducted on termination at Day 21. General methods for the ELISpot can be found in the Supporting Information. Preparation of media and buffers and steps performed on Days 1 and 2 post‐termination; the ELISpot assays were performed using a laminar flow cabinet and aseptic techniques to ensure the sterility of media, reagents and plates at stages before development of the ELISpot. Development of the ELISpot on Day 4 posttermination was performed on the laboratory bench.
(§2) In Vivo Evaluation (ELISpot Assay)
Animal experiments were carried out with ethical approval from University of Nottingham ethical review boards and under a Home Office approved project license (PP2706800). HLA-HHDII/DR1 (HLA-A2.1+/+ HLADR1+/+, Pasteur Institute) transgenic mice knocked out for murine MHC-I and II and expressing chimeric HLA-A2 (HHDII) and human HLA-DR1 or Balb/c mice (Charles River) aged 6-12 weeks were used. Mice were vaccinated with 10 ηmol of each immunogen at each timepoint. Doses were delivered subcutaneously (s.c.) in 50 µl volume on days 1, 8 and 15. No anaesthesia was used for injections. Responses were screened on day 21 after euthanasia by cervical dislocation. Preparation of media and buffers and steps performed on days 1 and 2 of the ELISpot assay were performed using a laminar flow cabinet and aseptic techniques to ensure the sterility of media, reagents and plates at stages before development of the ELISpot. Development of the ELISpot on day 4 can be performed on the […]
The following tables summarise the details of the vaccine candidates and vaccination procedure including (dose time points):
Table S5. Summary of the injection schedule (including dose concentration and number) for Pam2Cys-SK4-NY-ESO-1157-165 (2) candidate using HHDII/DR1 Tg mice. […]

HHDII/DR1 mice = assay: In vivo toxicity in HHDII/DR1 mice; parameters: species or system HHDII/DR1 (HLA‐A2 transgenic) mice; details: 10 nmol in 50 μL s.c., days 1, 8 and 15, n = 3
Description: as §1, §2
Animal experiments were carried out with ethical approval from University of Nottingham ethical review boards and under a Home Office approved project license (PP2706800). HLA-HHDII/DR1 (HLA-A2.1+/+ HLADR1+/+, Pasteur Institute) transgenic mice knocked out for murine MHC-I and II and expressing chimeric HLA-A2 (HHDII) and human HLA-DR1 or Balb/c mice (Charles River) aged 6-12 weeks were used. Mice were vaccinated with 10 ηmol of each immunogen at each timepoint. Doses were delivered subcutaneously (s.c.) in 50 µl volume on days 1, 8 and 15. No anaesthesia was used for injections. […]

Substance: 3: vaccine‐adjuvant construct Pam2Cys‐SK4‐NY‐ESO‐1_157‐165 [compound 3]
- Immune response (in words) (IFNγ‐secreting T‐cells; healthy HLA‐A2 transgenic (HHDII/DR1) mice, 10 nmol in 50 μL s.c., days 1, 8, 15, n = 3, day 21, versus media‐only negative control): specific but weak responses; also recorded: weakly immunogenic; also recorded: shows activity as a self‐adjuvanting vaccine candidate
- ANOVA significance (in words) (IFNγ‐secreting T‐cells; restimulated with NY‐ESO‐1_87‐111 and NY‐ESO‐1_119‐143): not significant
- ANOVA significance (in words) (IFNγ‐secreting T‐cells; restimulated with NY‐ESO‐1_157‐165): significant effect
- In vivo toxicity outcome (HHDII/DR1 mice): non‐toxic

From paper PMC12053792 (Journal of Peptide Science, 2025)
